These results are taken from patent publication US7396842B2, “Five-membered cyclic compounds” (Dianippon Sumitomo Pharma Co., Ltd., priority 2002, dated 2008).

The target in one experiment is T1, SMBS on rat lung membranes (Rattus norvegicus, UniProt A0A8I6A822).
T1 construct: from tissue; host or cells: rat lung membranes (SD male rats)
T1 sequence (A0A8I6A822 27-587): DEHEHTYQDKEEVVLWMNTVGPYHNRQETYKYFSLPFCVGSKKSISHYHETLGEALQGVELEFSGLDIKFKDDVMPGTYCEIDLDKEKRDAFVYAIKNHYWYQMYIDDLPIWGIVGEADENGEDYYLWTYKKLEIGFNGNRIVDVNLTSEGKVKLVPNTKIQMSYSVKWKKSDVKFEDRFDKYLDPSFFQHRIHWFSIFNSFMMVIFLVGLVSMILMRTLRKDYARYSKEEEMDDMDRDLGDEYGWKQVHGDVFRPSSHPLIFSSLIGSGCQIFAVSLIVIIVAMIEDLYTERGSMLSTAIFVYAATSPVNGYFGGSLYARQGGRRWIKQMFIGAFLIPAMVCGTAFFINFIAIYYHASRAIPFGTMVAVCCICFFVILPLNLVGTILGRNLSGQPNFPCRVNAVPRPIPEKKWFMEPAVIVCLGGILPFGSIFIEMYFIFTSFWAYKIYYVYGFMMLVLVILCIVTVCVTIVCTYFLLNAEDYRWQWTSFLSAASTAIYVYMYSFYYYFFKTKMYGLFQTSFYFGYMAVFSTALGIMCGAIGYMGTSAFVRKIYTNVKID
Nature of the experiment: Receptor binding of the compound in rat lung membranes ([125I]-iodo-cyanopindolol ligand binding assay; Experiments 1 and 4). The following applies: Table 37; compound concentration 30 μM; [125I]-iodo-cyanopindolol, rat lung membranes; Experiment 1; read-out: Binding Activity (30 μM). Here is the method:
Evaluation Test on Receptor Binding of the Compound in Rat Lung Membranes:
This experiment was carried out according to the method disclosed in Sugasawa et al., (Sugasawa, T. et al., J. Biol. Chem., 272, 21244-21252(1997)).
Preparation of Rat Lung Membranes
The air tube and blood vessels were removed from the lung excised from SD male rats (7-weeks old when used, purchased from Charles River Japan, Inc.), and the lung was chopped, and washed with ice-cold tris-saline buffer (10 mM Tris-HCl, 154 mM sodium chloride, pH 7.4). The lung was homogenized by PHYSCOTRON (maximum speed: 1 minute) in a buffer for homogenization (tris-saline buffer containing 1 mM ethylenediaminetetraacetate (EDTA), 1 mM 4-(2-aminoethyl)-benzenesulfonyl fluoride (AEBSF), 5 μg/ml aprotinin, 5 μg/ml leupeptin) under ice-cooling. The mixture was centrifuged at a low speed (1500×g, 20 minutes, 4° C.), and the supernatant was super-centrifuged (100000×g, 20 minutes, 4° C.). The pellets thus obtained were suspended in tris-saline buffer, and kept at −80° C. The concentration of protein was measured by a Protein Assay Kit manufactured by Bio-Rad using bovine serum albumin (BSA) as standard.
To each well of a protein-non-adsorbent round-bottom 96-well assay plate (purchased from IWAKI GLASS CO., LTD.) was added tris-saline buffer (200 μl) containing 1 nM [^125I]-iodo-cyanopindolol (purchased from Amarsham), 10 μM serotonin, 20 μM dl-propranol, 10 μM phentoramine, 1.1 mM ascorbic acid and 100 μg lung membranes, and the mixture was mixed well by pipetting, and the plate was incubated at 37° C. for 30 minutes. Test compounds were dissolved in 100% dimethylsulfoxide, and added to the plate in an amount of 2 μl (final concentration of DMSO: 1%). In order to obtain non-specific binding, L-threo-3-(3,4-dihydroxyphenyl)-N-[3-(4-fluorophenyl)propyl]-serinepyrrolidinamide was added at a final concentration of 100 μM instead of test compound. During this period, 0.3% polyethyleneimine (PEI)/tris-saline buffer (100 μl) was added to a multiscreen plate (96-well B-glassfiber, milipore Cat. No. MAFB NOB10) and the plate was incubated for more than 30 minutes. The plate was washed by vacuum filtration (by adding ice-cold tris-saline buffer (200 μl) and then vacuum filtration), and the reaction solution on the 96-well assay plate was washed by vacuum filtration onto the multiscreen plate for four times. The B-glassfiber paper filter at the bottom of the multiscreen plate was punched out, and the γ-ray amount of [^125I]-iodo-cyanopindolol being trapped onto the paper filter was measured as binding amount. The binding amount in the presence of DMSO (final concentration: 1%) was regarded as total binding, and the binding in the presence of L-threo-3-(3,4-dihydroxyphenyl) -N-[3-(4-fluorophenyl)-propyl]serinepyrrolidinamide was regarded as non-specific binding. The value which is calculated by subtracting non-specific binding from total binding is specific binding. The binding activity of the compound can be calculated by the following equation, and expressed in a ratio of inhibiting the specific binding of [^125I]-iodo-cyanopindorol to SMBS on rat lung membranes.
In the same manner to in Experiment 1, the receptor binding assay was carried out on the present compounds by using the rat lung membranes.
Consider `COc1ccc(-c2csc(=Nc3ccccc3)n2CCCN)cc1` [Example 9, N-[3-(3-Aminopropyl)-4-(4-methoxyphenyl)-thiazol-2(3H) -ylidene]aniline], for which the inhibition at 30 µM turned out to be 79%.

Still in this experiment, the particulars now being: Table 39; compound concentration 30 μM; [125I]-iodo-cyanopindolol, rat lung membranes; Experiment 1; read-out: Binding Activity (30 μM).
Regarding `CC(=O)NCCCn1c(-c2ccc(Br)cc2)csc1=Nc1ccccc1` [Example 153, N-{3-[4-(4-Bromophenyl)-2-phenyliminothiazol-3(2H)-yl]propyl}-acetamide], the inhibition at 30 µM turned out to be 89.7%. For `COC(=O)NCCCn1c(-c2ccc(OC)cc2)csc1=Nc1ccccc1` [Example 176, Methyl 3-[4-(4-methoxyphenyl)-2-(phenylimino)thiazol-3(2H)-yl]propyl-carbamate], the inhibition at 30 µM is 75.2%.

On to `NCCCn1c(-c2ccc(C(=O)O)cc2)csc1=Nc1ccccc1` [Example 185, 4-[3-(3-Aminopropyl)-2-(phenylimino)-2,3-dihydrothiazol-4-yl]-benzoic acid], for which the inhibition at 30 µM was 13.9%.

Still in this experiment, the particulars now being: Table 42; concentration tested 30 μM; rat lung membranes; Experiment 4; read-out: Binding Activity (30 μM).
On to `CN(C)CC(=O)NCCCn1c(-c2ccc(N3CCOCC3)cc2)cs/c1=N\c1ccc(F)cc1` [Example 245], for which the inhibition at 30 µM was found to be 96%. Turning to `O=C(NCCCn1c(-c2ccc(N3CCOCC3)cc2)csc1=Nc1ccc(F)cc1)c1ccccc1` [Example 222, N-{3-[2-[(4-Fluorophenyl)imino]-4-[4-(morpholino)phenyl]thiazol-3(2H)-yl]propyl}benzamide], the inhibition at 30 µM was 86%. On the same count and under the same terms, the value for `CNC(=O)NCCn1c(-c2ccc(N3CCOCC3)cc2)csc1=Nc1ccc(F)cc1` [Example 214, N-Methyl-N′-{2-[2-[(4-fluorophenyl)imino]-4-[4-(morpholino)phenyl]-thiazol-3(2H)-yl]ethyl}urea] was 99%. For the compound `CCOC(=O)CC(=O)NCCCn1c(-c2ccc(N3CCOCC3)cc2)cs/c1=N\c1ccc(F)cc1` [Example 239], the inhibition at 30 µM amounted to 50%. Consider `CCNC(=O)NCCCCCn1c(-c2ccc(N3CCOCC3)cc2)cs/c1=N\c1ccc(F)cc1` [Example 295], for which the inhibition at 30 µM is 18%.

Still in this experiment, the particulars now being: Table 43; concentration tested 30 μM; rat lung membranes; Experiment 4; read-out: Binding Activity (30 μM).
With `O=C(O)CNCCCn1c(-c2ccc(N3CCOCC3)cc2)csc1=Nc1ccc(F)cc1` [Example 329, N-{3-[2-[(4-Fluorophenyl)imino]-4-[4-(morpholino)phenyl]thiazol-3(2H)-yl]propyl}glycine], the inhibition at 30 µM was 76%.

`CCNC(=O)NCCCn1c(COCc2ccccc2)cs/c1=N\c1ccc(OC)cn1` [Example 307]: the inhibition at 30 µM was 48%. Regarding `COc1ccc(C/N=c2\scc(-c3ccc(OC(F)(F)F)cc3)n2CCCNC(C)=O)c(OC)c1` [Example 373, N-{3-[2-[(2,4-dimethoxybenzyl)imino]-4-[4-(trifluoromethoxy)phenyl]-1,3-thiazol-3(2H)-yl]propyl}acetamide], the inhibition at 30 µM was determined as 90%. `CCNC(=S)NCCCn1c(-c2ccc(N3CCOCC3)cc2)cs/c1=N\c1ccc(F)cc1` [Example 312]: the inhibition at 30 µM is 112%. Regarding `CN(C)C(=O)CNCCCn1c(-c2ccc(N3CCOCC3)cc2)cs/c1=N\c1ccc(F)cc1` [Example 342], the inhibition at 30 µM stood at 56%. Same read-out and setting: then `CN(C)CC(=O)NCCCn1c(-c2ccc(N3CCOCC3)cc2)cs/c1=N\c1ccc(F)cc1` [Example 361], with 88%; and `O=C(CN1CCCC1)NCCCn1c(-c2ccc(OC(F)(F)F)cc2)cs/c1=N\Cc1ccc(Cl)cc1` [Example 384, N-{3-[2-[(4-Chlorobenzyl)imino]-4-[4-(trifluoromethoxy)phenyl]-1,3-thiazol-3(2H)-yl]propyl}-2-(1-pyrrolidinyl)acetamide], with 107%; and `CN(C)CCNC(=O)NCCCn1c(-c2ccc(N3CCOCC3)cc2)csc1=Nc1ccc(F)cc1` [Example 349, N-[2-(Dimethylamino)ethyl]-N′-{3-[2-[(4-fluorophenyl)imino]-4-[4-(morpholino)phenyl]thiazol-3(2H)-yl]propyl}urea], with 100%. Turning to `CCNC(=O)NCCCn1c(COCc2ccccc2)cs/c1=N\c1ccc(OC(F)(F)F)cc1` [Example 305], the inhibition at 30 µM amounted to 13%. For `CCNC(=O)CNCCCn1c(-c2ccc(N3CCOCC3)cc2)csc1=Nc1ccc(F)cc1` [Example 335, N^1-ethyl-N^2-{3-[2-[(4-fluorophenyl)imino]-4-[4-(morpholino)phenyl]-thiazol-3(2H)-yl]propyl}glycinamide], the inhibition at 30 µM was 101%.

Consider `O=C(CNCCCn1c(-c2ccc(N3CCOCC3)cc2)cs/c1=N\c1ccc(F)cc1)NCCO` [Example 344], for which the inhibition at 30 µM amounted to 101%. `COCCNCCCn1c(-c2ccc(F)cc2)cs/c1=N\Cc1ccc(Cl)cc1OC` [Example 411, 3-[2-[(4-Chloro-2-methoxybenzyl)imino]-4-(4-fluorophenyl)-1,3-thiazol-3(2H)-yl]-(2-methoxyethyl)-1-propanamine]: the inhibition at 30 µM was 118%.

Staying with this experiment, now noted: Table 44; concentration tested 30 μM; rat lung membranes; Experiment 4; read-out: Binding Activity (30 μM).
Regarding `COc1ccc(C(=O)/N=c2\scc(-c3ccc(OC(F)(F)F)cc3)n2CCCN)c(OC)c1` [Example 437], the inhibition at 30 µM was 106%. `O=C(O)CNCCCn1c(-c2ccc(OC(F)(F)F)cc2)cs/c1=N\Cc1ccc(Cl)cc1` [Example 427, N-{3-[2-[(4-Chlorobenzyl)imino]-4-[4-(trifluoromethoxy)phenyl]-1,3-thiazol-3(2H)-yl]propyl}glycine]: the inhibition at 30 µM was found to be 100%. Still for that read-out and setting: the value for `CC(=O)NCCCn1c(-c2ccc(OC(F)(F)F)cc2)cs/c1=N\C(=O)CCc1ccccc1` [Example 454] was 38%; that for `CCOC(=O)NCCCn1c(-c2ccc(OC(F)(F)F)cc2)cs/c1=N\Cc1ccc(Cl)cc1` [Example 368] was 100%; that for `CCCC(=O)NCCCn1c(-c2ccc(OC(F)(F)F)cc2)cs/c1=N\C(=O)c1ccc(OC)cc1OC` [Example 447] was 89%. For `O=C(CNCCCn1c(-c2ccc(OC(F)(F)F)cc2)cs/c1=N\Cc1ccc(Cl)cc1)NCCO` [Example 423], the inhibition at 30 µM came out at 113%. For `CCOC(=O)NCCCn1c(-c2ccc(OC(F)(F)F)cc2)cs/c1=N\C(=O)c1ccc(OC)cc1OC` [Example 444], the inhibition at 30 µM came out at 99%. As for `O=C(NCCCn1c(-c2ccc(OC(F)(F)F)cc2)cs/c1=N\Cc1ccc(Cl)cc1)NCCN1CCCC1` [Example 408], the inhibition at 30 µM turned out to be 121%. Take `CN(C)C(=O)NCCCn1c(-c2ccc(OC(F)(F)F)cc2)cs/c1=N\Cc1ccc(Cl)cc1` [Example 404]: the inhibition at 30 µM was determined as 109%.

Still in this experiment, the particulars now being: ratio of inhibiting the specific binding of [125I]-iodo-cyanopindolol; test concentration 30 μM; rat lung membranes; read-out: Binding Activity (30 μM).
As for `COc1ccc(C(=O)/N=c2\scc(C(=O)Nc3ccc(Cl)cc3)n2CCCNC(C)=O)c(OC)c1` [Example 461], the inhibition at 30 µM worked out at 42%. In the case of `CCOC(=O)CCNCCCn1c(-c2ccc(OC(F)(F)F)cc2)cs/c1=N\C(=O)c1ccc(OC)cc1OC` [Example 520], the inhibition at 30 µM was found to be 99%. On to `COc1ccc(C(=O)/N=c2\scc(-c3ccc(OC(F)(F)F)cc3)n2CCCNC(=N)N2CCCCC2)c(OC)c1` [Example 535], for which the inhibition at 30 µM amounted to 108%. On to `COc1ccc(C(=O)/N=c2\scc(-c3ccc(OC(F)(F)F)cc3)n2CCCNC(=O)CN(C)C)c(OC)c1` [Example 482], for which the inhibition at 30 µM was found to be 85%. As to `CCNC(=O)NCCCn1c(-c2ccc(OC(F)(F)F)cc2)cs/c1=N\C(=O)c1ccc(OC)cc1OC` [Example 484], the inhibition at 30 µM is 97%. In the case of `COc1ccc(C(=O)/N=c2\scc(-c3ccc(OC(F)(F)F)cc3)n2CCCNC(=O)N2CCOCC2)c(OC)c1` [Example 509], the inhibition at 30 µM was 103%.
